Assay results from the supplement of paper PMC10307832.

Assays:
Experiment in all cases: relative viability (nuclei count vs DMSO), 5 days (fraction); higher = more cells survive
[1] = compound: CN1C=C(C2=CC=CC=C21)/C=C\3/C4=C(C=CC=N4)NC3=O + CC(=O)c1c(C)c2cnc(Nc3ccc(N4CCNCC4)cn3)nc2n(C2CCCC2)c1=O [Palbociclib] (partner 0.5 µM)
Summary of the method: (§1)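 Five library-drug doses in √10 steps were combined with a fixed anchor-drug dose, or a single drug was given alone, by pin tool to lung cancer cell lines in 1536-well plates the day after seeding. Nuclei were stained and counted after 5 days. Relative viability is the nuclei count in treated wells over that in vehicle wells, taken as the median of duplicate plates.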

[2] = compound: CN1C=C(C2=CC=CC=C21)/C=C\3/C4=C(C=CC=N4)NC3=O + Cc1nc(Nc2ncc(C(=O)Nc3c(C)cccc3Cl)s2)cc(N2CCN(CCO)CC2)n1 [Dasatinib] (partner 0.075 µM)
Summary of the method: as §1

[3] = compound: CN1C=C(C2=CC=CC=C21)/C=C\3/C4=C(C=CC=N4)NC3=O + O=C(c1cc(Cc2n[nH]c(=O)c3ccccc23)ccc1F)N1CCN(C(=O)C2CC2)CC1 [Olaparib] (partner 8 µM)
Summary of the method: as §1

Trametinib + Crizotinib = compound: CC(=O)Nc1cccc(-n2c(=O)n(C3CC3)c(=O)c3c(Nc4ccc(I)cc4F)n(C)c(=O)c(C)c32)c1 [Trametinib] + C[C@@H](Oc1cc(-c2cnn(C3CCNCC3)c2)cnc1N)c1c(Cl)ccc(F)c1Cl [Crizotinib] (partner 1 µM)
Summary of the method: as §1

Cell Line	relative viability ([1]; first compound 0.02 µM)	relative viability ([1]; first compound 0.06325 µM)	relative viability ([1]; first compound 0.2 µM)	relative viability ([1]; first compound 0.6325 µM)	relative viability ([1]; first compound 2 µM)	relative viability ([2]; first compound 0.02 µM)	relative viability ([2]; first compound 0.06325 µM)	relative viability ([2]; first compound 0.2 µM)	relative viability ([2]; first compound 0.6325 µM)	relative viability ([2]; first compound 2 µM)	relative viability ([3]; first compound 0.02 µM)	relative viability ([3]; first compound 0.06325 µM)	relative viability ([3]; first compound 0.2 µM)	relative viability ([3]; first compound 0.6325 µM)	relative viability ([3]; first compound 2 µM)	relative viability (Trametinib + Crizotinib; first compound 0.0025 µM)	relative viability (Trametinib + Crizotinib; first compound 0.007906 µM)	relative viability (Trametinib + Crizotinib; first compound 0.025 µM)	relative viability (Trametinib + Crizotinib; first compound 0.07906 µM)	relative viability (Trametinib + Crizotinib; first compound 0.25 µM)
NCI-H3122	0.137	0.181	0.202	0.183	0.235	0.722	0.756	0.753	0.844	0.835	0.621	0.578	0.653	0.681	0.652	0.238	0.228	0.221	0.199	0.209
PC-3 [JPC-3]	0.535	0.521	0.545	0.562	0.515	1.04	0.888	1.02	0.866	1.02	1.03	1.1	1.12	1.2	1.16	1.02	0.968	0.919	0.737	0.601
PC-14	0.539	0.536	0.55	0.617	0.545	0.227	0.223	0.194	0.205	0.186	0.213	0.237	0.197	0.235	0.251	0.994	0.909	0.815	0.686	0.55
RERF-LC-KJ	0.937	1.07	0.988	0.963	1.12	0.898	0.878	0.737	0.68	0.679	0.736	0.681	0.763	0.528	0.468	0.794	0.819	0.778	0.664	0.763
SK-LU-1	0.282	0.367	0.369	0.342	0.399	0.118	0.129	0.175	0.191	0.154	0.424	0.43	0.406	0.444	0.602	0.976	0.87	0.775	0.619	0.371
SK-MES-1	0.243	0.325	0.316	0.321	0.264	0.271	0.322	0.279	0.305	0.353	0.638	0.516	0.592	0.544	0.505	0.997	0.991	0.792	0.543	0.334
SW 1573	0.319	0.391	0.426	0.424	0.485	0.348	0.537	0.488	0.633	0.516	0.5	0.425	0.434	0.453	0.529	0.781	0.603	0.601	0.518	0.462
